{"source": "patent US20180311342A1", "about": "“IMMUNOSTIMULATING AGENT” (AJINOMOTO CO., INC., priority 2017, published 2018)", "system": "anti-OVA-specific IgG2a subclass antibody", "assay": "Adjuvant activity test: anti-OVA-specific IgG2a subclass antibody in serum of OVA-immunized mice (ELISA)", "format": "in vivo, BALB/c mice", "conditions": "after secondary immunization, serum 2 weeks later; OVA 5 μg + compound 0.256 μmol in 5% αCD-added saline (Addavax mixed with saline at 1:1), dorsal-subcutaneous; compared to OVA single administration group"}
{"smiles": "CCCCCCCCCCCCCCCCCCCCCC(=O)N[C@@H](CC(C)C)C(=O)NCCCCCCCC", "note": "[SZ198, N-[(1S)-3-methyl-1-(octylcarbamoyl)butyl]docosanamide]", "values": [{"measurement": "anti-OVA-specific IgG2a subclass antibody production", "result": "tended to increase"}]}
